# Measured values from patent publication US7163933B2, “Treating agent for Paget's disease of bone” (Teijin Limited, priority 2002, dated 2007).
# Tests used:
# [1] = system: bone marrow cells from patients with Paget's disease of bone; assay: Osteoclast formation in bone marrow cultures from patients with Paget's disease of bone (23C6-positive cells with three or more nuclei); assay type: cell-based, human
# Source text: (§1) Mononuclear cells were fractionated from bone marrow cells of healthy normal adults and patients with Paget's disease of bone according to a method of Kurihara et al. (Endocrinology, vol. 126, 2733–2741 (1990) and Journal of Clinical Investigation, vol. 105, 606–614 (2000)). Briefly, bone marrow cells were obtained from normal adults and patients with Paget's disease of bone, a mononuclear cell fraction was collected by Hypaque-Ficoll density gradient centrifugation, the cell fraction was washed with α-Minimal Essential Media (α-MEM, GIBCO BRL; Grand Island, N.Y.) 3 times, and the cells were dispersed in α-MEM containing 10% fetal bovine serum (GIBCO BRL; Grand Island, N.Y.). This mononuclear cell suspension was seeded on 100-mm tissue culture plates, the culture plates were kept for 90 minutes at 37° C. in a 5% CO2-air atmosphere, and the non-adherent cells were collected.
# Mononuclear cells were fractionated from bone marrow cells of patients with Paget's disease of bone as described in Example 1. The collected mononuclear cells were dispersed in an α-MEM culture medium containing 20% horse serum in such a manner that the concentration became 10^6 cells/ml, and seeded on a 96-well multiplate at 100 μl/well. The suppression effect of Compound 11 (23S isomer) on osteoclast formation in the bone marrow cells of patients with Paget's disease of bone induced by 1α,25-dihydroxyvitamin D3 was evaluated as follows. Into each well, 1α,25-dihydroxyvitamin D3 of various concentrations, Compound 11 (23S isomer) of various concentrations, or a combination of 10^−10 M 1α,25-dihydroxyvitamin D3 and Compound 11 (23S isomer) of various concentrations was added. The culture medium was replaced two times a week, and culture was continued for 3 weeks at 37° C. in an incubator of 5% CO2-air. After the culture, the culture product was subjected to 23C6 antibody (antibody; gift from Dr. Michael A. Horton, Rayne Institute, Bone and Mineral Center, London, United Kingdom) alkaline phosphatase dyeing (VECTASTAIN-ABC-AP kit; Vector Laboratories, Burlingame, Calif.), and the nuclei were dyed with methyl green. Cells that were positive to 23C6 antibody and had three or more nuclei were determined as osteoclast, and the number of all osteoclasts in each well was counted.
# TAFII-17 gene = TAFII-17 gene expression (RT-PCR, band density vs β-actin) in bone marrow mononuclear cells from patients with Paget's disease of bone; assay type: cell-based, human
# Source text: as §1
# Mononuclear cells were prepared from bone marrow collected from patients with Paget's disease of bone according to a method described in Example 1. The collected mononuclear cells were dispersed in an α-MEM culture medium containing 20% horse serum in such a manner that the concentration became 3.3×10^5 cells/ml, seeded on 35-mm tissue culture plates at 3 ml/plate, and cultured for 12 hr at 37° C. in an incubator of 5% CO2-air in the presence of 10^−10 M 1α, 25-dihydroxyvitamin D3 and 10^−8 M Compound 11 (23S isomer) of the present invention singly, or in the presence of 10^−10 M 1α, 25-dihydroxyvitamin D3 and 10^−8 M Compound 11 (23S isomer) together. Subsequently, the cells were collected by centrifuge, RNA was extracted according to a routine procedure after the addition of 1 ml of an RNAzol B solution, and the resulting RNA was converted into cDNA by using a reverse transcriptase. The TAFII-17 gene was subjected to PCR reaction of 35 cycles each consisting of 1 min at 94° C., 1 min at 55° C. and 1 min at 72° C. using 5′-[…]-3′ (SEQ ID NO: 14) (sense) and 5′-[…]-3′(SEQ ID NO: 15) (antisense) as the primers. The PCR products were fractionated by electrophoresis using 2% agarose gel. As a house-keeping gene, β-actin was subjected to PCR reaction in the same manner, and the PCR products were fractionated by electrophoresis using 2% agarose gel. The densities of the bands of the TAFII-17 gene and the β-actin gene were determined by an image analyzer.
# [2] = system: human 25-hydroxyvitamin D3-24-hydroxylase gene promoter; assay: 25-hydroxyvitamin D3-24-hydroxylase (24-OHase) luciferase reporter assay in NIH3T3 cells; assay type: cell-based, mouse
# Source text: The promoter region of the human 25-hydroxyvitamin D3-24-hydroxylase gene(−186/−5), which contains two vitamin D responsive elements (VDRE) was cloned into a luciferase reporter vector pGL3-Basic Vector (Promega; Madison, Wis.). This plasmid construct was cotransfected with a β-galactosidase expression plasmid into pcDNA3.1-Neo-hTAFII-17-CDS (Example 2) or its empty vector-transfected mouse fibroblastic cell line NIH3T3 cells by lipofection (LipofectAMINE; GIBCO BRL; Grand Island, N.Y.). Sixteen hours after the transfection, vehicle (0.1% ethanol) or 1α,25-(OH)2D3 (10^−10 to 10^−8 M) was added. Forty-eight hours later, the cells were harvested in the cell lysate solution provided with the luciferase assay kit (Promega; Madison, Wis.). The luciferase activities of the cell lysates were measured with the luciferase assay kit according to the manufacturer's instructions and was standardized with the β-galactosidase activities of the same cell lysates determined with a β-galactosidase enzyme assay system (Promega; Madison, Wis.).
# [3] = test substance alone at 10^−7 M, 3 weeks culture
# [4] = test substance alone at 10^−8 M, 3 weeks culture
# [5] = test substance alone at 10^−9 M, 3 weeks culture
# [6] = test substance alone at 10^−10 M, 3 weeks culture
# [7] = test substance alone at 10^−11 M, 3 weeks culture
smiles,measurement,setting,value
"C=C1C[C@H](C[C@H](C)[C@H]2CC[C@H]3/C(=C/C=C4/C[C@@H](O)C[C@H](O)C4=C)CCC[C@]23C)OC1=O (single isomer, unassigned) [Compound 11 (23S isomer)]",osteoclast formation (average number of cells ± S.D.),"[1]; 10^−6 M compound 11 (23S isomer) + 10^−10 M 1α,25-dihydroxyvitamin D3, 3 weeks culture",1 ± 1 cells
same,osteoclast formation (average number of cells ± S.D.),"[1]; 10^−7 M compound 11 (23S isomer) + 10^−10 M 1α,25-dihydroxyvitamin D3, 3 weeks culture",14 ± 1 cells
same,osteoclast formation (average number of cells ± S.D.),"[1]; 10^−8 M compound 11 (23S isomer) + 10^−10 M 1α,25-dihydroxyvitamin D3, 3 weeks culture",63 ± 5 cells
same,osteoclast formation (average number of cells ± S.D.),"[1]; 10^−9 M compound 11 (23S isomer) + 10^−10 M 1α,25-dihydroxyvitamin D3, 3 weeks culture",125 ± 5 cells
same,osteoclast formation (average number of cells ± S.D.),"[1]; 10^−10 M compound 11 (23S isomer) + 10^−10 M 1α,25-dihydroxyvitamin D3, 3 weeks culture",155 ± 6 cells
same,osteoclast formation (average number of cells ± S.D.),"[1]; 10^−11 M compound 11 (23S isomer) + 10^−10 M 1α,25-dihydroxyvitamin D3, 3 weeks culture",170 ± 13 cells
same,"osteoclast formation induced by 10^−10 M 1α,25-dihydroxyvitamin D3 (in words)","[1]; Compound 11 (23S isomer) added simultaneously, range of 10^−11 M to 10^−6 M",suppressed
same,osteoclast formation (in words),[1]; Compound 11 (23S isomer) alone at 10^−6 M,did not caused any osteoclast formation
same,osteoclast formation (in words),[1]; Compound 11 (23S isomer) by itself,rather inhibited the osteoclast formation
same,osteoclast formation (average number of cells ± S.D.),"[1]; test substance alone at 10^−6 M, 3 weeks culture",1 ± 1 cells
same,osteoclast formation (average number of cells ± S.D.),[1]; [3],8 ± 2 cells
same,osteoclast formation (average number of cells ± S.D.),[1]; [4],9 ± 3 cells
same,osteoclast formation (average number of cells ± S.D.),[1]; [5],16 ± 2 cells
same,osteoclast formation (average number of cells ± S.D.),[1]; [6],20 ± 4 cells
same,osteoclast formation (average number of cells ± S.D.),[1]; [7],29 ± 5 cells
same,expression of TAFII-17 gene (in words),TAFII-17 gene; 10^−8 M Compound 11 (23S isomer) added alone,remarkably suppressed
same,TAFII-17/β-actin,"TAFII-17 gene; 10^−8 M Compound 11 (23S isomer) singly, 12 hr culture",6.82 arbitrary units
same,TAFII-17/β-actin,"TAFII-17 gene; 10^−8 M Compound 11 (23S isomer) together with 10^−10 M 1α,25-(OH)2D3, 12 hr culture",46.89 arbitrary units
same,"expression of TAFII-17 gene accelerated by 10^−10 M 1α,25-(OH)2D3 (in words)",TAFII-17 gene; addition of 10^−8 M Compound 11 (23S isomer),strongly suppressed
"C=C1/C(=C\C=C2/CCC[C@]3(C)[C@@H]([C@H](C)CCCC(C)(C)O)CC[C@@H]23)C[C@@H](O)C[C@@H]1O [1α,25-dihydroxyvitamin D3, reference compound]","expression of 25-hydroxyvitamin D3-24-hydroxylase gene (reporter, in words)","[2]; TAFII-17 gene-transfected NIH3T3 cells, 10^−8 M 1α,25-(OH)2D3, 48 h",extremely accelerated
same,"expression of 25-hydroxyvitamin D3-24-hydroxylase gene (reporter, in words)","[2]; TAFII-17 gene-transfected NIH3T3 cells, 10^−9 M 1α,25-(OH)2D3, 48 h",accelerated
same,"expression of 25-hydroxyvitamin D3-24-hydroxylase gene (reporter, in words)","[2]; empty vector-transfected NIH3T3 cells, 10^−8 M 1α,25-(OH)2D3, 48 h",detected
same,"expression of 25-hydroxyvitamin D3-24-hydroxylase gene (reporter, in words)","[2]; empty vector-transfected NIH3T3 cells, 10^−9 M 1α,25-(OH)2D3, 48 h",hardly detected
same,concentration exhibiting almost the maximum activity on osteoclast formation,"[1]; 1α,25-dihydroxyvitamin D3 alone",~10^−9 M
same,osteoclast formation (in words),"[1]; 1α,25-dihydroxyvitamin D3 alone, range of 10^−11 M to 10^−7 M",stimulated osteoclast formation concentration-dependently
same,osteoclast formation (average number of cells ± S.D.),[1]; [3],205 ± 6 cells
same,osteoclast formation (average number of cells ± S.D.),[1]; [4],206 ± 16 cells
same,osteoclast formation (average number of cells ± S.D.),[1]; [5],211 ± 25 cells
same,osteoclast formation (average number of cells ± S.D.),[1]; [6],180 ± 15 cells
same,osteoclast formation (average number of cells ± S.D.),[1]; [7],134 ± 14 cells
same,TAFII-17/β-actin,"TAFII-17 gene; 10^−10 M 1α,25-(OH)2D3 singly, 12 hr culture",100 arbitrary units
